Source: patent publication US9670220B2, “Fused heterocyclic derivatives as S1P modulators” (Abbvie B.V., priority 2010, dated 2017)

How the values were obtained:
human S1P5 receptor = human S1P5 receptor (Homo sapiens (Human), UniProt Q9H228); assay: In vitro functional activity (agonism) on human S1P5 receptors, CHO-human-S1P5-Aequorin assay; type: cell-based; conditions: aequorin luminescence; for EC50: read-out: S1P5 pEC50 (converted)
Protocol: In Vitro Functional Activity (Agonism) on Human 51P5 Receptors
The CHO-human-S1P5-Aeqorin assay was bought from Euroscreen, Brussels (Euroscreen, Technical dossier, Human Lysophospholid S1P5 (Edg8) receptor, DNA clone and CHO AequoScreen™ recombinant cell-line, catalog n°: ES-593-A, September 2006). Human-S1P5-Aequorin cells express mitochondrial targeted apo-Aequorin. […] This luminescent response is dependent on the agonist concentration. Luminescence is measured using the MicroBeta Jet (Perkin Elmer). Agonistic effects of compounds are expressed as pEC50.

human S1P3 receptor = human S1P3 receptor (Homo sapiens (Human), UniProt Q99500); assay: In vitro functional activity (agonism) on human S1P3 receptors, CHO-human-S1P3-Aequorin assay; type: cell-based; conditions: aequorin luminescence; for EC50: read-out: S1P3 pEC50 (converted)
Protocol: In Vitro Functional Activity (Agonism) on Human S1P3 Receptors
The CHO-human-S1P3-Aeqorin assay (CHO/Gα16/AEQ/h-S1P3) was established at Solvay Pharmaceuticals. […] This luminescent response is dependent on the agonist concentration. Luminescence is measured using the MicroBeta Jet (Perkin Elmer). Agonistic effects of compounds are expressed as pEC50.

human S1P1 receptor [1] = target: T1, human S1P1 receptor (Homo sapiens (Human), UniProt P21453); assay: In vitro functional activity (agonism) on human S1P1 receptors (method B), CHO-K1-human S1P1 cAMP assay; type: cell-based; conditions: determined using method B (cAMP, forskolin); for EC50: read-out: S1P1^B pEC50 (converted)
Protocol: The CHO-K1-Human S1P1-c-AMP assay was performed at Euroscreenfast, Brussels (Euroscreen, Human S1P1 coupling Gi/0, (Edg1) receptor, catalog no: FAST-0197C, December 2009).
Recombinant CHO-K1 cells expressing human S1P1, grown to mid-log Phase in culture media without antibiotics, detached, centrifuged and re-suspended. For agonist testing cells are mixed with compound and Forskolin and incubated at room temperature. Cells are lyses and cAMP concentration are estimated, according to the manufacturer specification, With the HTRF kit from CIS-BIO International (cat n°62AM2PEB).
Agonistic effects of compounds are expressed as a percentage of the activity of the reference compound at its EC100 concentration, EC50 is calculated and results are reported as pEC50.

human S1P1 receptor [2] = target: T1, human S1P1 receptor; conditions: agonism, determined using method A (aequorin)
From the text: In Vitro Functional Activity (Agonism) on Human S1P1 Receptors (Method A)
The CHO-K1-human-S1P1-Acqorin assay was bought from Euroscreen Fast, Brussels (Euroscreen, Technical dossier, Human S1P1 (Edg1) receptor, DNA clone and CHO-K1 AequoScreen™ recombinant cell-line, catalog n°: FAST-0197 L, February 2010). Human-S1P1-Aequorin cells express mitochondrial targeted apo-Aequorin. Cells have to be loaded with coelanterazine, in order to reconstitute active Aequorin. After binding of agonists to the human S1P1 receptor the intracellular calcium concentration increases and binding of calcium to the apo-Aequorin/coelenterazine complex leads to an oxidation reaction of coelenterazine, which results in the production of apo-Aequorin, coelenteramide, CO2 and light ([…]max 469 nm). This luminescent response is dependent on the agonist concentration. Luminescence is measured using the MicroBeta Jet (Perkin Elmer). Agonistic effects of compounds are expressed as pEC50. Compounds were tested at a 10 points half log concentration range, and 2 independent experiments were performed in single point's measurements.

Chain of human S1P3 receptor (Q99500 whole entry): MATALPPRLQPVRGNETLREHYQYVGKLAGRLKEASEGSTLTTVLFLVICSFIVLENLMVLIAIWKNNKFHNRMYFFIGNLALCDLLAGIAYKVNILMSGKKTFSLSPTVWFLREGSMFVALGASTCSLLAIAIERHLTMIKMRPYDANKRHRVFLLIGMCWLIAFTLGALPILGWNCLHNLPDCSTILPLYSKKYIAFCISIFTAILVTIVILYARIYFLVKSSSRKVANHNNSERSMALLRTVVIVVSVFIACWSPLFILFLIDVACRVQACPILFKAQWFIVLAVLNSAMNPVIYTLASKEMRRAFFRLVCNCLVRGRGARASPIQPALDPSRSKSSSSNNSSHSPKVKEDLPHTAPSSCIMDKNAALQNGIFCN
Chain of human S1P5 receptor (Q9H228 whole entry): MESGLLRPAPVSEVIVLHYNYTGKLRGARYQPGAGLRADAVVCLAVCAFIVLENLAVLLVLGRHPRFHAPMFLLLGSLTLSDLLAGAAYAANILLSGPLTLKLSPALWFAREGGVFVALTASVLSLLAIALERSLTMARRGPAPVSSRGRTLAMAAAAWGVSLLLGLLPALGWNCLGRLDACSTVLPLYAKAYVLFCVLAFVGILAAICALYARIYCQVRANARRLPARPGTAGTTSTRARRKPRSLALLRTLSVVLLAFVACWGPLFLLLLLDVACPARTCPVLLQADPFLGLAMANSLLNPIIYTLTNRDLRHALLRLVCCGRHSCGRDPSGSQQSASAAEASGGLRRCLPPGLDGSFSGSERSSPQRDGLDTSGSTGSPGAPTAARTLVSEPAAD
T1 sequence (P21453 whole entry): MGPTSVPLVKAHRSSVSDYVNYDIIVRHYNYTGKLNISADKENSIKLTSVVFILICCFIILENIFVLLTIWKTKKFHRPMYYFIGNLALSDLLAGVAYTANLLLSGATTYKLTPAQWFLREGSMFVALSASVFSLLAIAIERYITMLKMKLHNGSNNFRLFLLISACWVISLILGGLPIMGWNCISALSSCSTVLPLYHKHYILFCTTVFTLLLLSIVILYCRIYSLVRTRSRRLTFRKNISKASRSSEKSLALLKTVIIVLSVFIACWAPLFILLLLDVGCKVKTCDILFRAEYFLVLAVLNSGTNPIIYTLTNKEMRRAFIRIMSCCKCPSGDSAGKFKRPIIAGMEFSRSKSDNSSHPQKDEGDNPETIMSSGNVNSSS

SMILES	S1P5 pEC50 (human S1P5 receptor)	S1P3 pEC50 (human S1P3 receptor)	S1P1^B pEC50 (human S1P1 receptor [1])	EC50 (human S1P5 receptor) [nM]	EC50 (human S1P3 receptor) [nM]	EC50 (human S1P1 receptor [1]) [nM]	S1P1^A pEC50 (human S1P1 receptor [2])
CC(CC(=O)O)N1CCc2oc(-c3ccc(OCc4cccc(F)c4F)cc3)nc2C1 (stereo not drawn) [Compound 175]	8.3	5.8	<5.5	–	–	–	–
O=C(O)CCCN1CCc2oc(-c3ccc(OCc4ccc(Cl)cc4)c(F)c3)nc2C1 [Compound 211, 4-{2-[4-(4-Chloro-benzyloxy)-3-fluoro-phenyl]-6,7-dihydro-H-oxazolo[4,5-c]pyridine-5-yl}-butyric acid]	8.3	<5.0	6.1	–	–	–	–
CC(CN1CCc2oc(-c3ccc(OCc4ccc(Cl)cc4)cc3)nc2C1)C(=O)O (stereo not drawn) [Compound 157, 3-{2-[4-(4-Chloro-benzyloxy)-phenyl]-6,7-dihydro-H-oxazolo[4,5-c]pyridine-5-yl}-2-methyl-propionic acid]	8.1	5.3	6.2	–	–	–	–
CC(CC(=O)O)N1CCc2oc(-c3ccc(OCc4ccccc4)cc3)cc2C1 (stereo not drawn) [Compound 76, 3-{2-[4-Benzyloxy-phenyl]-6,7-dihydro-4H-furo[3,2-c]pyridine-5-yl}-butyric acid]	–	–	–	7.94	> 10000	251	–
CC(CN1CCc2oc(-c3ccc(OCc4ccc(Cl)cc4)cc3)cc2C1)C(=O)O (stereo not drawn) [Compound 77, 3-{2-[4-(4-Chloro-benzyloxy)-phenyl]-6,7-dihydro-4H-furo[3,2-c]pyridine-5-yl}-2-methyl-propionic acid]	–	–	–	3.98	794	31.6	–
O=C(O)C1CC(N2CCc3oc(-c4ccc(OCc5ccc(OC(F)(F)F)cc5)cc4)nc3C2)C1 (stereo not drawn) [Compound 306, 3-{2-[4-(4-Trifluoromethoxybenzyloxy)-phenyl]-6,7-dihydro-H-oxazolo[4,5-c]pyridine-5-yl}-cyclobutane carboxylic acid]	8.1	<5.0	–	–	–	–	<5
O=C(O)C1CC(N2CCc3oc(-c4ccc(OCc5ccc(F)c(F)c5)cc4)nc3C2)C1 (stereo not drawn) [Compound 278, 3-{2-[4-(3,4-Difluorobenzyloxy)-phenyl]-6,7-dihydro-H-oxazolo[4,5-c]pyridine-5-yl}-cyclobutane carboxylic acid]	7.4	<5	–	–	–	–	<5
CC(CN1CCc2oc(-c3ccc(OCc4ccc(C(F)(F)F)cc4)cc3)nc2C1)C(=O)O (stereo not drawn) [Compound 156, 3-{2-[4-(4-Trifluoromethyl-benzyloxy)-phenyl]-6,7-dihydro-H-oxazolo[4,5-c]pyridine-5-yl}-2-methyl-propionic acid]	8.4	5.5	6.2	–	–	–	–
O=C(O)CCCN1CCc2oc(-c3ccc(OCc4ccccc4F)c(Cl)c3)nc2C1 [Compound 283, 4-{2-[4-(2-Fluoro-benzyloxy)-3-chloro-phenyl]-6,7-dihydro-H-oxazolo[4,5-c]pyridine-5-yl}-butyric acid]	7.7	<5	–	–	–	–	<4.5
O=C(O)CCCN1CCc2oc(-c3ccc(OCc4ccccc4F)cc3)cc2C1 [Compound 35, 4-{2-[4-(2-Fluoro-benzyloxy)-phenyl]-6,7-dihydro-4H-furo[3,2-c]pyridine-5-yl}-butyric acid]	–	–	–	5.01	5010	251	–
CC(CN1CCc2oc(-c3ccc(OCc4ccccc4)cc3)nc2C1)C(=O)O (stereo not drawn) [Compound 146, 3-[2-(4-Benzyloxy-phenyl)-6,7-dihydro-H-oxazolo[4,5-c]pyridine-5-yl]-2-methyl-propionic acid]	7.8	<5.0	<5.5	–	–	–	–
Cc1cc(OCc2ccccc2F)ccc1-c1nc2c(o1)CCN(CCCC(=O)O)C2 [Compound 89, 4-{2-[4-(2-Fluoro-benzyloxy)-2-methyl-phenyl]-6,7-dihydro-H-oxazolo[4,5-c]pyridine-5-yl}-butyric acid]	8.2	<5.0	5.9	–	–	–	–
O=C(O)CCN1CCc2oc(-c3ccc(OCc4ccccc4F)cc3)cc2C1 [Compound 33, 3-{2-[4-(2-Fluoro-benzyloxy)-phenyl]-6,7-dihydro-4H-furo[3,2-c]pyridine-5-yl}-propionic acid]	–	–	–	15.8	3160	100	–
O=C(O)CCCN1CCc2oc(-c3ccc(OCc4ccc(Cl)c(Cl)c4)cc3F)nc2C1 [Compound 227, 4-{2-[4-(3,4-Dichloro-benzyloxy)-2-fluoro-phenyl]-6,7-dihydro-H-oxazolo[4,5-c]pyridine-5-yl}-butyric acid]	8.5	<6.0	6.0	–	–	–	–
O=C(O)CCCN1CCc2oc(-c3ccc(OCc4cccc(F)c4F)cc3)nc2C1 [Compound 57]	8.0	<5	<5.5	–	–	–	–
O=C(O)CCCN1CCc2oc(-c3ccc(OCc4ccc(C(F)(F)F)cc4)cc3F)nc2C1 [Compound 85, 4-{2-[4-(4-Trifluoromethyl-benzyloxy)-2-fluoro-phenyl]-6,7-dihydro-H-oxazolo[4,5-c]pyridine-5-yl}-butyric acid]	8.6	6.3	<5.5	–	–	–	–
O=C(O)CCN1CCc2oc(-c3ccc(OCc4ccccc4)cc3)nc2C1 [Compound 47]	8.0	<5	<5.5	–	–	–	–
O=C(O)C1CC(N2CCc3oc(-c4ccc(OCc5ccc(F)c(F)c5)cc4)nc3C2)C1 (stereo not drawn) [Compound 277, 3-{2-[4-(3,4-Difluorobenzyloxy)-phenyl]-6,7-dihydro-H-oxazolo[4,5-c]pyridine-5-yl}-cyclobutane carboxylic acid]	8.5	<5.0	–	–	–	–	5.2
O=C(O)CCCN1CCc2oc(-c3ccc(OCc4ccccc4F)cc3F)cc2C1 [Compound 73, 4-{2-[4-(2-Fluoro-benzyloxy)-2-fluoro-phenyl]-6,7-dihydro-4H-furo[3,2-c]-pyri-dine-5-yl}-butyric acid]	8.2	6.3	8.0	–	–	–	–
O=C(O)CCCN1CCc2oc(-c3ccc(OCc4ccccc4)cc3)nc2C1 [Compound 53, 4-{2-[4-Benzyloxy-phenyl]-6,7-dihydro-H-oxazolo[4,5-c]pyridine-5-yl}-butyric acid]	7.9	<5	–	–	–	–	<4.5
O=C(O)C1CC(N2CCc3oc(-c4ccc(OCc5ccc(OC(F)(F)F)cc5)cc4)nc3C2)C1 (stereo not drawn) [Compound 307, 3-{2-[4-(4-Trifluoromethoxybenzyloxy)-phenyl]-6,7-dihydro-H-oxazolo[4,5-c]pyridine-5-yl}-cyclobutane carboxylic acid]	7.3	<5.0	–	–	–	–	<5
CC(CN1CCc2oc(-c3ccc(OCc4ccc(C(F)(F)F)cc4)cc3F)nc2C1)C(=O)O (stereo not drawn) [Compound 271, 3-{2-[4-(4-Trifluoromethyl-benzyloxy)-2-fluoro-phenyl]-6,7-dihydro-H-oxazolo[4,5-c]pyridine-5-yl}-2-methyl-propionic acid]	8.0	5.4	6.2	–	–	–	–
